The values below come from US10179782B2, “Substituted sulfonamide compounds” (Genentech, Inc., priority 2016, dated 2019).

One may read the IC50 as the concentration that inhibits the measured activity by half.

Structures are written as SMILES.

The test concerns the target T1, human TRPA1 (Homo sapiens, UniProt O75762).
T1 construct: expressed in transfected cells; host or cells: CHO cells
The experiment in a line: TRPA1 FLIPR Tetra calcium influx assay in CHO cells (block of cinnamaldehyde-induced calcium influx). The test is classed as cell-based. The note with it: Table 2; CHO cells expressing TRPA1; agonist cinnamaldehyde 75 uM; 20 min compound incubation; Hill coefficient fixed to 1.5; read-out: hTRPA1 CHO Ca2+ AUC EVO (IC50). A digest of the protocol:
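CHO cells expressing TRPA1 were loaded with calcium dye in HBSS/20 mM HEPES, pH 7.4, 0.02% BSA, then given compound for 20 min at room temperature before ~EC80 cinnamaldehyde (75 µM human, 45 µM rat). Block of calcium influx was read on FLIPR Tetra; IC50 fitted with Hill coefficient fixed at 1.5.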

T1 sequence (O75762 whole entry): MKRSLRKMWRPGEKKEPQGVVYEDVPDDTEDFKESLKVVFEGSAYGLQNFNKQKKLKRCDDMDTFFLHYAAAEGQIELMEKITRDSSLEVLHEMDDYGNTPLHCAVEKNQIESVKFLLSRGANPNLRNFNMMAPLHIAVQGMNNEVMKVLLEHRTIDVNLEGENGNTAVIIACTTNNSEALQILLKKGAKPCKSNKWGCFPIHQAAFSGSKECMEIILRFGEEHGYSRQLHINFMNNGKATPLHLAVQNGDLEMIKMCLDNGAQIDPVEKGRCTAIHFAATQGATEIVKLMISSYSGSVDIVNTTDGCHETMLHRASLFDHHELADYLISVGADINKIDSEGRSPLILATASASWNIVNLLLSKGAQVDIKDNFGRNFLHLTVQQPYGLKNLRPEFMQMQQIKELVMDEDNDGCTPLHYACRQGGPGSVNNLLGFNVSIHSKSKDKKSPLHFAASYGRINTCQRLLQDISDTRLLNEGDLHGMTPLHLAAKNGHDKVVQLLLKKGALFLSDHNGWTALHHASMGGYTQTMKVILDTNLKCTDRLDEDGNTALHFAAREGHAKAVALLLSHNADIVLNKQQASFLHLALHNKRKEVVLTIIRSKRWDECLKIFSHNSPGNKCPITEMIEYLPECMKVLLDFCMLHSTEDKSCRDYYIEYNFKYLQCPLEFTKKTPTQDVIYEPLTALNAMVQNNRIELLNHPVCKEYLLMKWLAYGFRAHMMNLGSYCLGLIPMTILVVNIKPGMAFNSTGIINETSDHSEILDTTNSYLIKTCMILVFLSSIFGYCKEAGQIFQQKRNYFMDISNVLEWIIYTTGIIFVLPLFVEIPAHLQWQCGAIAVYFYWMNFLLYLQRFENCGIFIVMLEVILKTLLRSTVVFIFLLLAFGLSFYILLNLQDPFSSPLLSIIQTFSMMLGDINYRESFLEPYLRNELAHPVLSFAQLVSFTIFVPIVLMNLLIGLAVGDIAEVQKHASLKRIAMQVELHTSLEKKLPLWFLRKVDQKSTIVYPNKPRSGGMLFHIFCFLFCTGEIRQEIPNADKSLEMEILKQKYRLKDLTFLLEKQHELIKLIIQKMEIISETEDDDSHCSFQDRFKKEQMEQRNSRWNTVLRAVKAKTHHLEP

For `C[C@H]1[C@H](F)C[C@@H](C(=O)NCc2cc(-c3cnc(C(F)(F)F)cn3)ncn2)N1S(=O)(=O)c1ccc(F)cc1` [Example 87, (2S,4R,5S)-4-fluoro-1-(4-fluorophenyl)sulfonyl-5-methyl-N-[[6-[5-(trifluoromethyl)pyrazin-2-yl]pyrimidin-4-yl]methyl]pyrrolidine-2-carboxamide], the half-maximal inhibitory concentration (IC50) is 184 nM.
The same measure for `C[C@H]1[C@H](F)C[C@@H](C(=O)NCc2cc(C3CCN(CC(F)(F)F)CC3)ncc2F)N1S(=O)(=O)c1ccc(F)cc1` [Example 88, (2S,4R,5S)-4-fluoro-1-(4-fluorophenyl)sulfonyl-N-[[5-fluoro-2-[1-(2,2,2-trifluoroethyl)-4-piperidyl]-4-pyridyl]methyl]-5-methyl-pyrrolidine-2-carboxamide]: 42.3 nM; for `C[C@H]1[C@H](F)C[C@@H](C(=O)NCc2cc(-c3cnc(C(F)(F)F)nc3)ncc2F)N1S(=O)(=O)c1ccc(Br)cc1` [Example 89, (2S,4R,5S)-1-(4-bromophenyl)sulfonyl-4-fluoro-N-[[5-fluoro-2-[2-(trifluoromethyl)pyrimidin-5-yl]-4-pyridyl]methyl]-5-methyl-pyrrolidine-2-carboxamide]: 7.08 nM.
The same measure for `C[C@H]1[C@H](F)C[C@@H](C(=O)NCc2cc(-c3cnc(C(F)(F)F)nc3)ncc2F)N1S(=O)(=O)c1ccc(Cl)cc1` [Example 90]: 2.5 nM; for `C[C@H]1[C@H](F)C[C@@H](C(=O)NCc2cc(-c3cnc(C(F)(F)F)s3)ncc2F)N1S(=O)(=O)c1ccc(F)cc1` [Example 93, (2S,4R,5S)-4-fluoro-1-(4-fluorophenyl)sulfonyl-N-[[5-fluoro-2-[2-(trifluoromethyl)thiazol-5-yl]-4-pyridyl]methyl]-5-methyl-pyrrolidine-2-carboxamide]: 5.38 nM; for `C[C@H]1[C@H](F)C[C@@H](C(=O)NCc2cc(C3CCN(CC(F)(F)C(F)(F)F)CC3)ncc2F)N1S(=O)(=O)c1ccc(F)cc1` [Example 94, (2S,4R,5S)-4-fluoro-N-[[5-fluoro-2-[1-(2,2,3,3,3-pentafluoropropyl)-4-piperidyl]-4-pyridyl]methyl]-1-(4-fluorophenyl)sulfonyl-5-methyl-pyrrolidine-2-carboxamide]: 5.52 nM.
The same measure for `C[C@H]1[C@H](F)C[C@@H](C(=O)NCc2cc(-c3cnc(C(F)(F)F)nc3)ncc2F)N1S(=O)(=O)c1cc2ccccc2o1` [Example 95, (2S,4R,5S)-1-(benzofuran-2-ylsulfonyl)-4-fluoro-N-[[5-fluoro-2-[2-(trifluoromethyl)pyrimidin-5-yl]-4-pyridyl]methyl]-5-methyl-pyrrolidine-2-carboxamide]: 1.49 nM; for `C[C@H]1[C@H](F)C[C@@H](C(=O)NCc2cc(-c3ncc(C(F)(F)F)s3)c(F)cn2)N1S(=O)(=O)c1ccc(F)cc1` [Example 96, (2S,4R,5S)-4-fluoro-1-(4-fluorophenyl)sulfonyl-N-[[5-fluoro-4-[5-(trifluoromethyl)thiazol-2-yl]-2-pyridyl]methyl]-5-methyl-pyrrolidine-2-carboxamide]: 22.5 nM.
As for `C[C@H]1[C@H](F)C[C@@H](C(=O)NCc2cc(-c3cnc(C(F)(F)F)nc3)cc(F)c2F)N1S(=O)(=O)c1ccc(F)cc1` [Example 97, (2S,4R,5S)-N-[[2-1,3-difluoro-5-[2-(trifluoromethyl)pyrimidin-5-yl]phenyl]methyl]-4-fluoro-1-(4-fluorophenyl)sulfonyl-5-methyl-pyrrolidine-2-carboxamide], the IC50 is 6.06 nM.
The same measure for `C[C@H]1[C@H](F)C[C@@H](C(=O)NCc2cc(-c3cnc(C(F)(F)F)nc3)ncc2F)N1S(=O)(=O)c1cc2ccccc2s1` [Example 98, (2S,4R,5S)-1-(benzothiophen-2-ylsulfonyl)-4-fluoro-N-[[5-fluoro-2-[2-(trifluoromethyl)pyrimidin-5-yl]-4-pyridyl]methyl]-5-methyl-pyrrolidine-2-carboxamide]: 5.61 nM.
With `C[C@H]1[C@H](F)C[C@@H](C(=O)NCc2cc(-c3cnc(C(F)(F)F)nc3)ncc2F)N1S(=O)(=O)c1cc2cc(F)ccc2s1` [Example 99, (2S,4R,5S)-4-fluoro-1-(5-fluorobenzothiophen-2-yl)sulfonyl-N-[[5-fluoro-2-[2-(trifluoromethyl)pyrimidin-5-yl]-4-pyridyl]methyl]-5-methyl-pyrrolidine-2-carboxamide] the figure was 9.67 nM.
Regarding `Cc1cnc(-c2cnc(C(F)(F)F)nc2)cc1CNC(=O)[C@@H]1C[C@@H](F)[C@H](C)N1S(=O)(=O)c1ccc(F)cc1` [Example 100, (2S,4R,5S)-4-fluoro-1-((4-fluorophenyl)sulfonyl)-5-methyl-N-((5-methyl-2-(2-(trifluoromethyl)pyrimidin-5-yl)pyridin-4-yl)methyl)pyrrolidine-2-carboxamide], the IC50 is 12.7 nM.
With `C[C@H]1[C@H](F)C[C@@H](C(=O)NCc2cc(-c3cnc(C(F)(F)F)nc3)ncc2F)N1S(=O)(=O)c1ccc(Cl)s1` [Example 101, (2S,4R,5S)-1-[(5-chloro-2-thienyl)sulfonyl]-4-fluoro-N-[[5-fluoro-2-[2-(trifluoromethyl)pyrimidin-5-yl]-4-pyridyl]methyl]-5-methyl-pyrrolidine-2-carboxamide] the figure was 0.545 nM; with `C[C@H]1[C@H](F)C[C@@H](C(=O)NCc2cc(-c3cnc(C(F)(F)F)nc3)ncc2C(F)F)N1S(=O)(=O)c1ccc(F)cc1` [Example 102, (2S,4R,5S)—N-((5-(difluoromethyl)-2-(2-(trifluoromethyl)pyrimidin-5-yl)pyridin-4-yl)methyl)-4-fluoro-1-(4-fluorophenylsulfonyl)-5-methylpyrrolidine-2-carboxamide], 4.07 nM; with `C[C@H]1[C@H](F)C[C@@H](C(=O)NCc2cc(-c3cnc(C(F)(F)F)nc3)ncc2C(F)(F)F)N1S(=O)(=O)c1ccc(F)cc1` [Example 103, (2S,4R,5S)-4-fluoro-1-(4-fluorophenylsulfonyl)-5-methyl-N-((5-(trifluoromethyl)-2-(2-(trifluoromethyl)pyrimidin-5-yl)pyridin-4-yl)methyl)pyrrolidine-2-carboxamide], 0.777 nM.
With `C[C@H]1[C@H](F)C[C@@H](C(=O)NCc2cc(-c3cnc(C(F)(F)F)nc3)nc(C3CC3)c2C#N)N1S(=O)(=O)c1ccc(F)cc1` [Example 104, (2S,4R,5S)—N-((3-cyano-2-cyclopropyl-6-(2-(trifluoromethyl)pyrimidin-5-yl)pyridin-4-yl)methyl)-4-fluoro-1-(4-fluorophenylsulfonyl)-5-methylpyrrolidine-2-carboxamide], the 50% inhibitory concentration (IC50) was 0.682 nM.
For `C[C@H]1[C@H](F)C[C@@H](C(=O)NCc2cc(-c3cnc(C(F)(F)F)nc3)ncc2OC(F)(F)F)N1S(=O)(=O)c1ccc(F)cc1` [Example 105, (2S,4R,5S)-4-fluoro-1-(4-fluorophenyl)sulfonyl-5-methyl-N-[[5-(trifluoromethoxy)-2-[2-(trifluoromethyl)pyrimidin-5-yl]-4-pyridyl]methyl]pyrrolidine-2-carboxamide], the IC50 was determined as 0.875 nM.
With `C[C@H]1[C@H](F)C[C@@H](C(=O)NCc2cc(-c3cnc(C(F)(F)F)nc3)c(OC(F)(F)F)cn2)N1S(=O)(=O)c1ccc(F)cc1` [Example 106, (2S,4R,5S)-4-fluoro-1-(4-fluorophenyl)sulfonyl-5-methyl-N-[[5-(trifluoromethoxy)-4-[2-(trifluoromethyl)pyrimidin-5-yl]-2-pyridyl]methyl]pyrrolidine-2-carboxamide] the figure was 2.2 nM.
With `C[C@H]1[C@H](F)C[C@@H](C(=O)NCc2cc(-c3cnc(C(F)(F)F)nc3)c(C(F)(F)F)cn2)N1S(=O)(=O)c1ccc(F)cc1` [Example 107, (2S,4R,5S)-4-fluoro-1-(4-fluorophenyl)sulfonyl-5-methyl-N-[[5-(trifluoromethyl)-4-[2-(trifluoromethyl)pyrimidin-5-yl]-2-pyridyl]methyl]pyrrolidine-2-carboxamide] the figure was 9.74 nM; with `C[C@H]1[C@H](F)C[C@@H](C(=O)NCc2cc(-c3cnc(C(F)(F)F)nc3)nc(C(F)(F)F)n2)N1S(=O)(=O)c1ccc(F)cc1` [Example 108, (2S,4R,5S)-4-fluoro-1-(4-fluorophenyl)sulfonyl-5-methyl-N-[[2-(trifluoromethyl)-6-[2-(trifluoromethyl)pyrimidin-5-yl]pyrimidin-4-yl]methyl]pyrrolidine-2-carboxamide], 2 nM; with `C[C@H]1[C@H](F)C[C@@H](C(=O)NCc2cnc(C(F)(F)F)c(-c3cnc(C(F)(F)F)nc3)c2)N1S(=O)(=O)c1ccc(F)cc1` [Example 109, (2S,4R,5S)-4-fluoro-1-(4-fluorophenyl)sulfonyl-5-methyl-N-[[6-(trifluoromethyl)-5-[2-(trifluoromethyl)pyrimidin-5-yl]-3-pyridyl]methyl]pyrrolidine-2-carboxamide], 16.9 nM.
With `C[C@H]1[C@H](F)C[C@@H](C(=O)NCc2cc(-c3cnc(C(F)(F)F)nc3)cnc2C2CC2)N1S(=O)(=O)c1ccc(F)cc1` [Example 110, (2S,4R,5S)-N-[[2-cyclopropyl-5-[2-(trifluoromethyl)pyrimidin-5-yl]-3-pyridyl]methyl]-4-fluoro-1-(4-fluorophenyl)sulfonyl-5-methyl-pyrrolidine-2-carboxamide] the figure was 10.6 nM; with `C[C@H]1[C@H](F)C[C@@H](C(=O)NCc2cc(-c3cnc(C(F)(F)F)nc3)ccc2C(F)(F)F)N1S(=O)(=O)c1ccc(F)cc1` [Example 111, (2S,4R,5S)-4-fluoro-1-(4-fluorophenyl)sulfonyl-5-methyl-N-[[2-(trifluoromethyl)-5-[2-(trifluoromethyl)pyrimidin-5-yl]phenyl]methyl]pyrrolidine-2-carboxamide], 1.75 nM.
